Here are results for one compound from ChEMBL document CHEMBL2429832, “N-substituted 8-aminopentacyclo[5.4.0.0(2,6).0(3,10).0(5,9)]undecanes as σ receptor ligands with potential neuroprotective effects” (Bioorg Med Chem, 2013).

Test [1] deals with Histamine H4 receptor (Homo sapiens, UniProt Q9H3N8). Nature of the test: Inhibition of histamine H4 receptor (unknown origin) at 10 uM by PDSP assay relative to control.
Test [2] has as its target Beta-1 adrenergic receptor (Homo sapiens) (UniProt P08588). Nature of the test: Inhibition of adrenergic beta1 receptor (unknown origin) at 10 uM by PDSP assay relative to control.
Test [3] deals with 5-hydroxytryptamine receptor 1D (Homo sapiens) (UniProt P28221). The test is described as follows: Inhibition of 5-HT1D receptor (unknown origin) at 10 uM by PDSP assay relative to control.
5-hydroxytryptamine receptor 1D (Homo sapiens), sequence (P28221 whole entry): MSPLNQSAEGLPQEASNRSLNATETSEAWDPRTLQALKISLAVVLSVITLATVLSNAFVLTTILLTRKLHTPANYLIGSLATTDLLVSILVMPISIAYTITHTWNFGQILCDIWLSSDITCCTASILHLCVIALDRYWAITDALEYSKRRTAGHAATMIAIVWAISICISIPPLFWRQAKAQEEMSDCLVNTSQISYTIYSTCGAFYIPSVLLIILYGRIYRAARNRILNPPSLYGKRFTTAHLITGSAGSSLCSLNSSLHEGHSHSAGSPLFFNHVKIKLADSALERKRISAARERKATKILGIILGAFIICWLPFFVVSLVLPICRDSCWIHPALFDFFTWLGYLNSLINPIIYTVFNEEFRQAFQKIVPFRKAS
For test [4], the target named is T1, 5-hydroxytryptamine receptor 1A (Homo sapiens) (UniProt P08908).
T1 sequence (whole entry): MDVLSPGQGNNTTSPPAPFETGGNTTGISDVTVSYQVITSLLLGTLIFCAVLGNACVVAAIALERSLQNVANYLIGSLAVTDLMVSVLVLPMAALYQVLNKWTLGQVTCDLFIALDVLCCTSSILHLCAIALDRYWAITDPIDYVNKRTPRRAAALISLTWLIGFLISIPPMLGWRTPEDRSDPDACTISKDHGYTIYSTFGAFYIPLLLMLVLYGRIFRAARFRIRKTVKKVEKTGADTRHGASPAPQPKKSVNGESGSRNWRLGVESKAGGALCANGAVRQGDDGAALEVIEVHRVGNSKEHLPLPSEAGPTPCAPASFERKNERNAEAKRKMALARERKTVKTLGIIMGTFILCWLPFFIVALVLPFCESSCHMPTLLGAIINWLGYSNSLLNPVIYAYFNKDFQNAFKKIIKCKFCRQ
The test is described as follows: Inhibition of 5-HT1A receptor (unknown origin) at 10 uM by PDSP assay relative to control.

The target in test [5] is T2, D(4) dopamine receptor (Homo sapiens) (UniProt P21917).
T2 sequence (whole entry): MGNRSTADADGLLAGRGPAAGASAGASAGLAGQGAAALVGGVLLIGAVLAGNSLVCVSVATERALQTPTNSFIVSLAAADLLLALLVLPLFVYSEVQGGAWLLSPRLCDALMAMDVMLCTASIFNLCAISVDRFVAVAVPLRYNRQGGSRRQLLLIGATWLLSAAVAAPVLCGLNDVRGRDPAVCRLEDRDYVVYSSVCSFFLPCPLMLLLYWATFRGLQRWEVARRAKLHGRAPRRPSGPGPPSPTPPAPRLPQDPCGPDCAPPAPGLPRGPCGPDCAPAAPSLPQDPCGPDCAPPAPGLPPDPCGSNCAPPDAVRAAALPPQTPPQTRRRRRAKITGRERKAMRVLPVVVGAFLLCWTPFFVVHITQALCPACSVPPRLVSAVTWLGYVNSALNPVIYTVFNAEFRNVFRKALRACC
The test is described as follows: Inhibition of dopamine D4 receptor (unknown origin) at 10 uM by PDSP assay relative to control.

Test [6] has as its target Beta-2 adrenergic receptor (Homo sapiens) (UniProt P07550). The test is described as follows: Inhibition of adrenergic beta2 receptor (unknown origin) at 10 uM by PDSP assay relative to control.
The target in test [7] is Sigma non-opioid intracellular receptor 1 (Rattus norvegicus, UniProt Q9R0C9). The test is described as follows: Displacement of [3H](+)-pentazocine from sigma-1 receptor in rat brain homogenates. The format is tissue-based.
Sigma non-opioid intracellular receptor 1, sequence (Q9R0C9 whole entry): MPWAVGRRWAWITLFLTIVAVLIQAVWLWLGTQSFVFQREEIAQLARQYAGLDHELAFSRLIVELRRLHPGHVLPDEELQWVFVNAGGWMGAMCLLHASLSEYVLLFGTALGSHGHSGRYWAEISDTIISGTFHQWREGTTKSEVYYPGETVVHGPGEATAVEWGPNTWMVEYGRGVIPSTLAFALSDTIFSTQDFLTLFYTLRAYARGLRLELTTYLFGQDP
Test [8] has as its target Sodium-dependent noradrenaline transporter (Homo sapiens, UniProt P23975). The test is described as follows: Displacement of [3H]-nisoxetine from human NET expressed in HEK cell membranes at 10 uM relative to control. As to conditions: HEK293.
The target of test [9] is 5-hydroxytryptamine receptor 2B (Homo sapiens, UniProt P41595). Nature of the test: Inhibition of 5-HT2B receptor (unknown origin) at 10 uM by PDSP assay relative to control.
5-hydroxytryptamine receptor 2B, sequence (P41595 whole entry): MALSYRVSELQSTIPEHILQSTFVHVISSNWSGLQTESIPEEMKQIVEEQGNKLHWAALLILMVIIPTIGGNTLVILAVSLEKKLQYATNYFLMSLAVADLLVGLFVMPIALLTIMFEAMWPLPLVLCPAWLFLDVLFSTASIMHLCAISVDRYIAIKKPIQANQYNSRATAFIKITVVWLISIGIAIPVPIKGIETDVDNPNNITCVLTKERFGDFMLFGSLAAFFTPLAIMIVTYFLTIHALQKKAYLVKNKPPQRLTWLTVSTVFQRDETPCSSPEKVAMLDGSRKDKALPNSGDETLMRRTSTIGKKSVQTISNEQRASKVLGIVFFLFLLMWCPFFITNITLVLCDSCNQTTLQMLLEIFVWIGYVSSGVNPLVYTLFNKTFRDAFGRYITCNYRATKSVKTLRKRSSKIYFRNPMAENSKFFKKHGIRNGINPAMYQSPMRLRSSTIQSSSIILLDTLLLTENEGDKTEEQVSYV
Test [10] has as its system PC-12. The test is described as follows: Selectivity ratio of Ki for sigma-1 receptor in rat brain homogenates to Ki for sigma-2 receptor in rat PC12 cells. The format is cell-based.
Test [11] deals with Mu-type opioid receptor (Homo sapiens, UniProt P35372). Nature of the test: Inhibition of mu opioid receptor (unknown origin) at 10 uM by PDSP assay relative to control.
Mu-type opioid receptor, sequence (P35372 whole entry): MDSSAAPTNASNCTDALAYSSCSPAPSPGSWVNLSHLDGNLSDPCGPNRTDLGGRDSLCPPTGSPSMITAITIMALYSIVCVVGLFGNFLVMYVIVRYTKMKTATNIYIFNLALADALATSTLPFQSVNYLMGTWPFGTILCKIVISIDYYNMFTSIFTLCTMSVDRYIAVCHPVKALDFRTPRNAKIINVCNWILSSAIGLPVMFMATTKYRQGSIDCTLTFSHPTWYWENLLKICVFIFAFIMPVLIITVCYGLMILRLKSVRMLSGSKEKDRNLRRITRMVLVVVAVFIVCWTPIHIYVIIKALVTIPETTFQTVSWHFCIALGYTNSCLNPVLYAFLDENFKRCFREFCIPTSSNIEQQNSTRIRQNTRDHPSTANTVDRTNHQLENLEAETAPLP
Test [12] concerns the target 5-hydroxytryptamine receptor 1B (Homo sapiens, UniProt P28222). The test is described as follows: Inhibition of 5-HT1B receptor (unknown origin) at 10 uM by PDSP assay relative to control.
The target of test [13] is Histamine H3 receptor (Homo sapiens, UniProt Q9Y5N1). The test is described as follows: Inhibition of histamine H3 receptor (unknown origin) at 10 uM by PDSP assay relative to control.
Histamine H3 receptor, sequence (Q9Y5N1 whole entry): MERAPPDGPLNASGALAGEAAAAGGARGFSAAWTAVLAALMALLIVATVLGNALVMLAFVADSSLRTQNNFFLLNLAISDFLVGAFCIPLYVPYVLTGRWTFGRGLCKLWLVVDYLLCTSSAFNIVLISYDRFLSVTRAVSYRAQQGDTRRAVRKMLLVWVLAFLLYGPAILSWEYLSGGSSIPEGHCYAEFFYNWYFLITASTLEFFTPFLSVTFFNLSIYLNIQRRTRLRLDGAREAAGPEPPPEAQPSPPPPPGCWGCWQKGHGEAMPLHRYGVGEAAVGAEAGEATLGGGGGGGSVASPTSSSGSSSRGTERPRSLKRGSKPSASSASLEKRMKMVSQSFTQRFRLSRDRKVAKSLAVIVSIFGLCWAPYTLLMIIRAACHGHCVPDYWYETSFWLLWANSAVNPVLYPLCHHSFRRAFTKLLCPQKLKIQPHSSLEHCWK
The target in test [14] is T3, 5-hydroxytryptamine receptor 3A (Homo sapiens) (UniProt P46098).
T3 sequence (whole entry): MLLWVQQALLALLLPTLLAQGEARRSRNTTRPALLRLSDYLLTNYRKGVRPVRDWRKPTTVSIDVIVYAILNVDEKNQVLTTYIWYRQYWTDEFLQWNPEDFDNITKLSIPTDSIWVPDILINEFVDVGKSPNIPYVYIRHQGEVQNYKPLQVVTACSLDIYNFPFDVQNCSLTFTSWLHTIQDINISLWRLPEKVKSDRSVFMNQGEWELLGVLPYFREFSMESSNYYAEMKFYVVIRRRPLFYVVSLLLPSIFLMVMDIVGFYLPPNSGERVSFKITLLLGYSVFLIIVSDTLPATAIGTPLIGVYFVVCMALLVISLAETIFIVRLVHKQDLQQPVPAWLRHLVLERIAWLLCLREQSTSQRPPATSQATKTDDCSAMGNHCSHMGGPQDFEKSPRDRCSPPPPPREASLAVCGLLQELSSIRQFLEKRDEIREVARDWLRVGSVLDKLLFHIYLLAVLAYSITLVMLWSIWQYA
Nature of the test: Inhibition of 5-HT3 receptor (unknown origin) at 10 uM by PDSP assay relative to control.

Test [15] deals with D(1A) dopamine receptor (Homo sapiens) (UniProt P21728). Nature of the test: Inhibition of dopamine D1 receptor (unknown origin) at 10 uM by PDSP assay relative to control.
D(1A) dopamine receptor (Homo sapiens), sequence (P21728 whole entry): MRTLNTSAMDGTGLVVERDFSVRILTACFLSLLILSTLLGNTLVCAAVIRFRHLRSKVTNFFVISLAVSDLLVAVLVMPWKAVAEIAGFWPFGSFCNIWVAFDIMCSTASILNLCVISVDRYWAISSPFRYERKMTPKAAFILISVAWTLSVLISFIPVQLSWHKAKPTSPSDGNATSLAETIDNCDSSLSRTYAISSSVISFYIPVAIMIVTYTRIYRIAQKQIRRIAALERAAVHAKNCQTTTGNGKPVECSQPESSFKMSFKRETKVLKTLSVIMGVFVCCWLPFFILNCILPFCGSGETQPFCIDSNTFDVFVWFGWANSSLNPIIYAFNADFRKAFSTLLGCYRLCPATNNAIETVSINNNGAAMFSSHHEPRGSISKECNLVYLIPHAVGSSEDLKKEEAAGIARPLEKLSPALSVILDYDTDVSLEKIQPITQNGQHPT
Test [16] addresses 5-hydroxytryptamine receptor 7 (Homo sapiens, UniProt P34969). Nature of the test: Inhibition of 5-HT7 receptor (unknown origin) at 10 uM by PDSP assay relative to control.

Where only a bound is given, the exact number is not on record here.

5-hydroxytryptamine receptor 1B, sequence (P28222 whole entry): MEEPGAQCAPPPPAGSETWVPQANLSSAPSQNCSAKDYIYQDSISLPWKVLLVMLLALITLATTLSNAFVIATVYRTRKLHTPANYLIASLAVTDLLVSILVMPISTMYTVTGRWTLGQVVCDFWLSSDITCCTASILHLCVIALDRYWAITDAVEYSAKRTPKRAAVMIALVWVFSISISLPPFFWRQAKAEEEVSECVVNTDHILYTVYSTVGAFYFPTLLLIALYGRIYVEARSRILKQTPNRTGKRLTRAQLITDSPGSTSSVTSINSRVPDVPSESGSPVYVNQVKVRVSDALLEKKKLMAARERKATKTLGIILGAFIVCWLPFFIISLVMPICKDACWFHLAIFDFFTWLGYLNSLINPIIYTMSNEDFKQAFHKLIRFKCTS
Beta-2 adrenergic receptor (Homo sapiens), sequence (P07550 whole entry, looked up): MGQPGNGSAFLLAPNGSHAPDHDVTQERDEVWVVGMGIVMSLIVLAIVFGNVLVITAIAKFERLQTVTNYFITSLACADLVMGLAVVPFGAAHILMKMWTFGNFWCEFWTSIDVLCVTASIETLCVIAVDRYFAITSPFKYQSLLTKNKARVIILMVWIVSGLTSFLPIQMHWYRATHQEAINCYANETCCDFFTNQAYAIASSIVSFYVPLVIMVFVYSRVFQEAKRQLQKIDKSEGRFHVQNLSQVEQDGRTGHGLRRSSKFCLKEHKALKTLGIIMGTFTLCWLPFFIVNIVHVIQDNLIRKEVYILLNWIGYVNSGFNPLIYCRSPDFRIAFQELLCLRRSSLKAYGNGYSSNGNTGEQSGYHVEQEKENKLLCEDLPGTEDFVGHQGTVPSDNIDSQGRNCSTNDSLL
5-hydroxytryptamine receptor 7, sequence (P34969 whole entry): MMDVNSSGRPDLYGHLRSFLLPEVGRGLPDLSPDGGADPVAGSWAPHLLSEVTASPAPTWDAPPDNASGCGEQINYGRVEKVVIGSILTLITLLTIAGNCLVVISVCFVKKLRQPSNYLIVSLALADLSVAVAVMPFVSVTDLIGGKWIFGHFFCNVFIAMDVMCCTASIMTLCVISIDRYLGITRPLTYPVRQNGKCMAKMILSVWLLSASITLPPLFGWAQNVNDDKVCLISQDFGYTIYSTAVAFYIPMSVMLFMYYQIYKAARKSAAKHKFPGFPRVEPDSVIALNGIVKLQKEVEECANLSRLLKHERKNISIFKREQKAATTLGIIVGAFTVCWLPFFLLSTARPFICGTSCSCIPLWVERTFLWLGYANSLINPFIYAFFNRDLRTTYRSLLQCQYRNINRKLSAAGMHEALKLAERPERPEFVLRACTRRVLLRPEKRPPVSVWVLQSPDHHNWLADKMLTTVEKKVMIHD
Sodium-dependent noradrenaline transporter, sequence (P23975 whole entry): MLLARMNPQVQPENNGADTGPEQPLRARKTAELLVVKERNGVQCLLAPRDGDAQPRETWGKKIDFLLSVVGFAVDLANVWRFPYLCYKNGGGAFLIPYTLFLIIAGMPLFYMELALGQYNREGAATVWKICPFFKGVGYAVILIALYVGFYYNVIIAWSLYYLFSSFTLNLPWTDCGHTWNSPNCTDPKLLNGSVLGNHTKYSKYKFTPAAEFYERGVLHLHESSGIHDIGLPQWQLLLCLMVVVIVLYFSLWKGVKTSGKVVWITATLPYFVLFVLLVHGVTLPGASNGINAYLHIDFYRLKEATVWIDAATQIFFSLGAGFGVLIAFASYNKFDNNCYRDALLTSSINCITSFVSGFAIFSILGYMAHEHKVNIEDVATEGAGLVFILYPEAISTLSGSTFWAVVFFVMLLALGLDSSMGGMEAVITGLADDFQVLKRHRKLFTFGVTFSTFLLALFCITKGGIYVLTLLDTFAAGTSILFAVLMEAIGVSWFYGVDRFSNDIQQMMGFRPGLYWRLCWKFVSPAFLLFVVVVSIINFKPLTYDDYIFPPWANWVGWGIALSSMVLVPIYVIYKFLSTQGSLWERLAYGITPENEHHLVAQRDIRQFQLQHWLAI
Beta-1 adrenergic receptor (Homo sapiens), sequence (P08588 whole entry, looked up): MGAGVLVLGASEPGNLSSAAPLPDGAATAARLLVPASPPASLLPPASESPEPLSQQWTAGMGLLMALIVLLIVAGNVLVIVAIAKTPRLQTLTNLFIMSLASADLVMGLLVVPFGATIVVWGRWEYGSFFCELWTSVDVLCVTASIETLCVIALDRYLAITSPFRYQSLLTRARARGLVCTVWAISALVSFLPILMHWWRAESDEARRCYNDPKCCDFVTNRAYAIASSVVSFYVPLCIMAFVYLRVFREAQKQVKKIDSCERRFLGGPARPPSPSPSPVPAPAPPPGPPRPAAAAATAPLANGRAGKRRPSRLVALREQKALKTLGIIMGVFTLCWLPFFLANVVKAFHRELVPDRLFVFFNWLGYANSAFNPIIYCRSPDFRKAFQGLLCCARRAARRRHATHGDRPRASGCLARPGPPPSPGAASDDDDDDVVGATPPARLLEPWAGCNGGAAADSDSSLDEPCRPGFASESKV

In the case of `CN(CCc1ccccn1)[C@H]1C2C3CC4C2C(=O)C2C4C3C21` (stereo partly specified), the inhibition in [1], in [2], in test [3], in test [4], in test [5] and in test [6] was less than 50% throughout. The inhibition in [8], in test [9], in [11], in [12], in [13] and in test [14] was less than 50% each time. Further, the inhibition in [15] and in test [16] was less than 50% throughout. The Ki in test [7] was greater than 10 µM. Moreover, the Ratio Ki in [10] is greater than 15.8.
